Measured values published in ChEMBL document CHEMBL4359892, “Discovery of novel indolylarylsulfones as potent HIV-1 NNRTIs via structure-guided scaffold morphing” (Eur J Med Chem, 2019).

Tests used:
[1] = system: Human immunodeficiency virus 1; experiment: Antiviral activity against HIV-1 3B infected in human MT4 cells assessed as reduction in virus-induced cytopathic effect incubated for 5 days by MTT assay; type: functional, organism-based; conditions: Human immunodeficiency virus 1, 3B, MT4, 120 h
[2] = system: Human immunodeficiency virus 1; experiment: Potency index, ratio of EC50 of NVP to EC50 of compound for antiviral activity against HIV-1 3B infected in human MT4 cells assessed as reduction in virus-induced cytopathic effect incubated for 5 days by MTT assay; type: functional
[3] = system: Human immunodeficiency virus 1; experiment: Antiviral activity against drug resistant HIV-1 RES056 harboring reverse transcriptase K103N/Y181C double mutant infected in human MT4 cells assessed as reduction in virus-induced cytopathic effect incubated for 5 days by MTT assay; type: functional, organism-based; conditions: Human immunodeficiency virus 1, RES056, MT4, 120 h
[4] = system: Human immunodeficiency virus 1; experiment: Potency index, ratio of EC50 of AZT to EC50 of compound for antiviral activity against HIV-1 3B infected in human MT4 cells assessed as reduction in virus-induced cytopathic effect incubated for 5 days by MTT assay; type: functional
[5] = Cytotoxicity against human MT4 cells assessed as reduction in cell viability incubated for 5 days by MTT assay; type: cell-based
[6] = Selectivity index, ratio of CC50 for human MT4 cells to EC50 for antiviral activity against HIV IIIB; type: toxicity; conditions: read-out: Ratio CC50/EC50
[7] = Selectivity index, ratio of CC50 for human MT4 cells to EC50 for antiviral activity against HIV RES056; type: toxicity; conditions: read-out: Ratio CC50/EC50
[8] = target: Human immunodeficiency virus type 1 reverse transcriptase (Human immunodeficiency virus 1, UniProt Q72547); experiment: Inhibition of HIV1 reverse transcriptase assessed as inhibition of biotin-dUTP incorporation into template incubated for 1 hr by ELISA
[9] = Sub-acute toxicity in Kunming mouse assessed as effect on anorexia at 50 mg/kg, po administered once every other day for 14 days; type: organism-based; conditions: in vivo, 336 h
[10] = Sub-acute toxicity in Kunming mouse assessed as effect on animal growth at 50 mg/kg, po administered once every other day for 14 days; type: organism-based; conditions: in vivo, 336 h
[11] = system: Human immunodeficiency virus 1; experiment: Antiviral activity against drug resistant HIV-1 harboring reverse transcriptase F227L/V106A double mutant infected in human MT4 cells assessed as reduction in virus-induced cytopathic effect incubated for 5 days by MTT assay; type: functional, organism-based; conditions: Human immunodeficiency virus 1, MT4, 120 h
[12] = Acute toxicity in Kunming mouse assessed as effect on body weight gain at 1000 mg/kg, ig administered as single dose and observed every day for 1 week; type: organism-based; conditions: in vivo, po, 168 h
[13] = Acute toxicity in Kunming mouse assessed as effect on ruffled fur at 1000 mg/kg, ig administered as single dose and observed every day for 1 week; type: organism-based; conditions: in vivo, po, 168 h
[14] = Sub-acute toxicity in Kunming mouse assessed as kidney damage at 50 mg/kg, po administered once every other day for 14 days measured on day 14 by HE-staining based assay; type: organism-based; conditions: in vivo, 336 h
[15] = system: Human immunodeficiency virus 1; experiment: Antiviral activity against drug resistant HIV-1 harboring reverse transcriptase E138K mutant infected in human MT4 cells assessed as reduction in virus-induced cytopathic effect incubated for 5 days by MTT assay; type: functional, organism-based; conditions: Human immunodeficiency virus 1, MT4, 120 h
[16] = system: Human immunodeficiency virus 1; experiment: Antiviral activity against drug resistant HIV-1 harboring reverse transcriptase L100I mutant infected in human MT4 cells assessed as reduction in virus-induced cytopathic effect incubated for 5 days by MTT assay; type: functional, organism-based; conditions: Human immunodeficiency virus 1, MT4, 120 h
[17] = Sub-acute toxicity in Kunming mouse assessed as heart damage at 50 mg/kg, po administered once every other day for 14 days measured on day 14 by HE-staining based assay; type: organism-based; conditions: in vivo, 336 h
[18] = Acute toxicity in Kunming mouse assessed as effect on animal growth at 1000 mg/kg, ig administered as single dose and observed every day for 1 week; type: organism-based; conditions: in vivo, po, 168 h
[19] = system: Human immunodeficiency virus 1; experiment: Antiviral activity against drug resistant HIV-1 harboring reverse transcriptase Y188L mutant infected in human MT4 cells assessed as reduction in virus-induced cytopathic effect incubated for 5 days by MTT assay; type: functional, organism-based; conditions: Human immunodeficiency virus 1, MT4, 120 h
[20] = Sub-acute toxicity in Kunming mouse assessed as effect on clonic convulsion at 50 mg/kg, po administered once every other day for 14 days; type: organism-based; conditions: in vivo, 336 h
[21] = Sub-acute toxicity in Kunming mouse assessed as lungs damage at 50 mg/kg, po administered once every other day for 14 days measured on day 14 by HE-staining based assay; type: organism-based; conditions: in vivo, 336 h
[22] = Acute toxicity in Kunming mouse assessed as effect on animal death at 1000 mg/kg, ig administered as single dose and observed every day for 1 week; type: organism-based; conditions: in vivo, po, 168 h
[23] = system: Human immunodeficiency virus 1; experiment: Antiviral activity against drug resistant HIV-1 harboring reverse transcriptase Y181C mutant infected in human MT4 cells assessed as reduction in virus-induced cytopathic effect incubated for 5 days by MTT assay; type: functional, organism-based; conditions: Human immunodeficiency virus 1, MT4, 120 h
[24] = Sub-acute toxicity in Kunming mouse assessed as effect on animal death at 50 mg/kg, po administered once every other day for 14 days; type: organism-based; conditions: in vivo, 336 h
[25] = system: Human immunodeficiency virus 1; experiment: Antiviral activity against drug resistant HIV-1 harboring reverse transcriptase K103N mutant infected in human MT4 cells assessed as reduction in virus-induced cytopathic effect incubated for 5 days by MTT assay; type: functional, organism-based; conditions: Human immunodeficiency virus 1, MT4, 120 h
[26] = Acute toxicity in Kunming mouse assessed as effect on anorexia at 1000 mg/kg, ig administered as single dose and observed every day for 1 week; type: organism-based; conditions: in vivo, po, 168 h
[27] = Sub-acute toxicity in Kunming mouse assessed as effect on ruffled fur at 50 mg/kg, po administered once every other day for 14 days; type: organism-based; conditions: in vivo, 336 h
[28] = Sub-acute toxicity in Kunming mouse assessed as effect on lethargy at 50 mg/kg, po administered once every other day for 14 days; type: organism-based; conditions: in vivo, 336 h
[29] = Acute toxicity in Kunming mouse assessed as effect on lethargy at 1000 mg/kg, ig administered as single dose and observed every day for 1 week; type: organism-based; conditions: in vivo, po, 168 h
[30] = Sub-acute toxicity in Kunming mouse assessed as spleen damage at 50 mg/kg, po administered once every other day for 14 days measured on day 14 by HE-staining based assay; type: organism-based; conditions: in vivo, 336 h
[31] = Sub-acute toxicity in Kunming mouse assessed as increase in body weight at 50 mg/kg, po administered once every other day for 14 days; type: organism-based; conditions: in vivo, 336 h
[32] = Sub-acute toxicity in Kunming mouse assessed as liver damage at 50 mg/kg, po administered once every other day for 14 days measured on day 14 by HE-staining based assay; type: organism-based; conditions: in vivo, 336 h
[33] = Acute toxicity in Kunming mouse assessed as effect on clonic convulsion at 1000 mg/kg, ig administered as single dose and observed every day for 1 week; type: organism-based; conditions: in vivo, po, 168 h
[34] = Sub-acute toxicity in Kunming mouse assessed as increase in alveolar hemorrhage administered for 14 days measured on day 14 by HE-staining based assay; conditions: in vivo, 336 h
[35] = Sub-acute toxicity in Kunming mouse assessed as increase in proximal convoluted tubule edema administered for 14 days measured on day 14 by HE-staining based assay; conditions: in vivo, 336 h
[36] = Sub-acute toxicity in Kunming mouse assessed as increase in alveolar interstitial thickening administered for 14 days measured on day 14 by HE-staining based assay; conditions: in vivo, 336 h

SMILES | EC50 [1] [nM] | EC50 [3] [nM] | CC50 at 120 h [5] [nM] | selectivity ratio [6] | selectivity ratio [7] | IC50 [8] [nM] | EC50 [11] [nM] | EC50 [15] [nM] | EC50 [16] [nM] | EC50 [19] [nM] | EC50 [23] [nM] | EC50 [25] [nM] | also measured
Cc1cc(C)cc(S(=O)(=O)c2c(C(=O)N[C@H]3CCN(S(C)(=O)=O)C3)[nH]c3ccc(Cl)cc23)c1 | 4.3 | > 29900 | 29900 | 7080 | < 1 | 610 | – | – | – | – | – | – | Ratio EC50 [2]: 60; Ratio EC50 [4]: 2.3
Cc1cc(C)cc(S(=O)(=O)c2c(C(=O)N[C@H]3CCN(CC(N)=O)C3)[nH]c3ccc(Cl)cc23)c1 | 9.8 | > 28100 | 28100 | 2880 | < 1 | – | 94 | 14 | 11 | 310 | 96 | 25 | Activity [9]: Non-Toxic; Activity [10]: Non-Toxic; Activity [12]: Non-Toxic; Activity [13]: Non-Toxic; Activity [14]: Non-Toxic; Activity [17]: Non-Toxic; Activity [18]: Non-Toxic; Activity [20]: Non-Toxic; Activity [21]: Non-Toxic; Activity [22]: Non-Toxic; Activity [24]: Non-Toxic; Activity [26]: Non-Toxic; Activity [27]: Non-Toxic; Activity [28]: Non-Toxic; Activity [29]: Non-Toxic; Activity [30]: Non-Toxic; Activity [31]: Non-Toxic; Activity [32]: Non-Toxic; Activity [33]: Non-Toxic
Cc1cc(C)cc(S(=O)(=O)c2c(C(=O)N[C@@H]3CCN(S(C)(=O)=O)C3)[nH]c3ccc(Cl)cc23)c1 | 4.7 | 7660 | 24000 | 5190 | 3 | – | – | – | – | – | – | – | Ratio EC50 [2]: 55; Ratio EC50 [4]: 2.1
Cc1cc(C)cc(S(=O)(=O)c2c(C(=O)N[C@@H]3CCN(CC(N)=O)C3)[nH]c3ccc(Cl)cc23)c1 | 9.8 | > 31000 | 31000 | 3170 | < 1 | 1490 | – | – | – | – | – | – | –
Cc1cc(C)cc(S(=O)(=O)c2c(C(N)=O)[nH]c3ccc(Cl)cc23)c1 | 4.1 | > 13000 | 13000 | 3130 | < 1 | 560 | 9.6 | 910 | 17 | – | 27 | 18 | –
Cc1cc(C#N)cc(C)c1Oc1nc(Nc2ccc(C#N)cc2)nc(N)c1Br [ETRAVIRINE] | 5.8 | 19 | > 4610 | > 792 | > 238 | – | 16 | 6 | 6.2 | 23 | 13 | 2.9 | Activity [34]: Toxic; Activity [35]: Toxic; Activity [36]: Toxic
Cc1cn([C@H]2C[C@H](N=[N+]=[N-])[C@@H](CO)O2)c(=O)[nH]c1=O [ZIDOVUDINE] | 10 | > 28100 | > 7490 | > 714 | > 645 | – | 4.9 | 12 | 4.9 | 7.5 | 7.9 | 12 | –
